The subject of data set [1] is TDP1. The settings on record: cited from earlier work.
In data set [2] the test system is ABCG2. The settings on record: cited from earlier work.
The test system of data set [3] is MDR-1. Particulars: cited from earlier work.
For data set [4], the target named is recombinant TDP1 (Homo sapiens, UniProt Q9NUW8). Description: Gel-based assay measuring the inhibition of recombinant TDP1. Format: biochemical.
Data set [5] concerns OVCAR-3. The settings on record: read-out: cytotoxicity GI50, ovarian OVCAR-3; cited from earlier work.
Data set [6] concerns DU-145. Particulars: read-out: cytotoxicity GI50, prostate DU-145; cited from earlier work.
Data set [7] deals with HOP-62. Particulars: read-out: cytotoxicity GI50, lung HOP-62; cited from earlier work.
The test system of data set [8] is MCF-7. The settings on record: read-out: cytotoxicity GI50, breast MCF-7; cited from earlier work.
In data set [9] the test system is HCT-116. The settings on record: read-out: cytotoxicity GI50, colon HCT-116; cited from earlier work.
Data set [10] has as its system UACC-62. The settings on record: read-out: cytotoxicity GI50, melanoma UACC-62; cited from earlier work.
In data set [11] the test system is SN12C. The settings on record: read-out: cytotoxicity GI50, renal SN12C; cited from earlier work.
The subject of data set [12] is all human cancer cell lines successfully tested. Description: NCI60 anti-proliferative screen, all cell lines. The class given is cell-based.

Bounds are passed on as bounds.

recombinant TDP1, sequence (Q9NUW8 whole entry): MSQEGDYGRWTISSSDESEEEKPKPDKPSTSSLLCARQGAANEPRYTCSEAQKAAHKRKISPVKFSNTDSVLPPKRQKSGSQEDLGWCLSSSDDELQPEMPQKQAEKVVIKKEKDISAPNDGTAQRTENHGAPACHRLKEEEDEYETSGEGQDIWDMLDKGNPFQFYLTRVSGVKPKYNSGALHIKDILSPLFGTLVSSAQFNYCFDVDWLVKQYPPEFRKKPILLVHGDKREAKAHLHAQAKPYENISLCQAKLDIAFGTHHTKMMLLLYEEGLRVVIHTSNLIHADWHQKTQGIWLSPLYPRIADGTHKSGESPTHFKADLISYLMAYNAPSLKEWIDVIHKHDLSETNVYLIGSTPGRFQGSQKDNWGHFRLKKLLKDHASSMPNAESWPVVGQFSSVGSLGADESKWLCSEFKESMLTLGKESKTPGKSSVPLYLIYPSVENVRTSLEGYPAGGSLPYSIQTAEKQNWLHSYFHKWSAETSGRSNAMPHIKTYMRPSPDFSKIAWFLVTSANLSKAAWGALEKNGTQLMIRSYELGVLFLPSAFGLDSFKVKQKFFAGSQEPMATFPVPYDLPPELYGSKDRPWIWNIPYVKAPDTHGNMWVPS

In the case of `N=C(N)c1ccc(-c2ccc(-c3ccc(C(=N)N)cc3)o2)cc1` [Furamidine (8), Furamidine], in data set [1], the “TDP1 inhibitor potency” value was “micromolar-range”.
Turning to `COc1cc2c3c(n(CCCN4CCOCC4)c(=O)c2cc1OC)-c1cc2c(cc1C3=O)OCO2` [Indotecan (6), indotecan], the “substrate for the ABCG2 efflux pump” value in data set [2] was “not a substrate”. Moreover, the “substrate for the MDR-1 efflux pump” value in data set [3] is listed as “not a substrate”.
For `COc1cc2c(=O)n(CCCN3CCOCC3)c3c(c2cc1OCCCN1CCN(C)CC1)C(=O)c1cc2c(cc1-3)OCO2` [compound 21, 3-Methoxy-2-(3-(4-methylpiperazin-1-yl)propoxy)-6-(3-morpholinopropyl)-5H-[1,3]dioxolo[4′,5′:5,6]indeno[1,2-c]isoquinoline-5,12(6H)-dione], in data set [4], the “TDP1 inhibitory activity” value is given as “no TDP1 inhibitory activity”.
Consider `COc1cc2c3c(n(CCCNCCO)c(=O)c2cc1OC)-c1cc2c(cc1C3=O)OCO2` [compound 5], for which the GI50 was 500 nM in data set [5]; under 10 nM in [6]; 20 nM in data set [7]; under 10 nM in data set [8]; 100 nM in data set [9]; 30 nM in [10]. In addition, in [11], the GI50 is under 10 nM.
Turning to `COC(=O)COc1cc2c3c(n(CCCN4CCOCC4)c(=O)c2cc1OC)-c1cc2c(cc1C3=O)OCO2` [compound 24, Methyl 2-((3-Methoxy-6-(3-morpholinopropyl)-5,12-dioxo-6,12-dihydro-5H-[1,3]dioxolo[4′,5′:5,6]indeno[1,2-c]isoquinolin-2-yl)oxy)acetate], the “GI50 against various cell lines” value in data set [12] is given as “low micromolar”.
Consider `COc1cc2c(=O)n(CCCN3CCOCC3)c3c(c2cc1OCCCN1CCOCC1)C(=O)c1cc2c(cc1-3)OCO2` [compound 20, 3-Methoxy-2-(3-morpholinopropoxy)-6-(3-morpholinopropyl)-5H-[1,3]dioxolo[4′,5′:5,6]indeno[1,2-c]isoquinoline-5,12(6H)-dione], for which, in data set [12], the “GI50 against various cell lines” value is recorded as “submicromolar”. Moreover, in data set [4], the “TDP1 inhibitory activity” value is listed as “no TDP1 inhibitory activity”.
Turning to `COc1cc2c(=O)n(CCCN3CCOCC3)c3c(c2cc1O)C(=O)c1cc2c(cc1-3)OCO2` [compound 13], in [8], the GI50 is 100 nM.
`COc1cc2c3c(n(CCCn4ccnc4)c(=O)c2cc1OC)-c1cc2c(cc1C3=O)OCO2` [indimitecan (7), indimitecan]: in data set [2], the “substrate for the ABCG2 efflux pump” value is reported as “less affected than the camptothecins”. Besides, the “substrate for the MDR-1 efflux pump” value in data set [3] is given as “less affected than the camptothecins”.
With `C=CCOc1cc2c3c(n(CCCN4CCOCC4)c(=O)c2cc1OC)-c1cc2c(cc1C3=O)OCO2` [compound 15, 2-(Allyloxy)-3-methoxy-6-(3-morpholinopropyl)-5H-[1,3]dioxolo[4′,5′:5,6]indeno [1,2-c]isoquinoline-5,12(6H)-dione], the “GI50 against various cell lines” value in [12] was “submicromolar”. Further, the “TDP1 inhibitory activity” value in data set [4] was “no detectable TDP1 inhibitory activity”.
In the case of `COc1cc2c(=O)n(CCCN3CCOCC3)c3c(c2cc1OCCCN1CCCCC1)C(=O)c1cc2c(cc1-3)OCO2` [compound 22, 3-Methoxy-6-(3-morpholinopropyl)-2-(3-(piperidin-1-yl)propoxy)-5H-[1,3]dioxolo[4′,5′:5,6]indeno[1,2-c]isoquinoline-5,12(6H)-dione], in data set [12], the “GI50 against various cell lines” value was “low micromolar”.
Still for that read-out and setting: to `COc1cc2c(=O)n(CCCN3CCOCC3)c3c(c2cc1OCCCN)C(=O)c1cc2c(cc1-3)OCO2.Cl` [compound 17, 2-(3-Aminopropoxy)-3-methoxy-6-(3-morpholinopropyl)-5H-[1,3]dioxolo[4′,5′:5,6]indeno[1,2-c]isoquinoline-5,12(6H)-dione] belongs “submicromolar”.

Usually GI50 stands for the concentration that inhibits growth by half.

The values above are taken from paper PMC4033654 (Journal of Medicinal Chemistry, 2014).
